From BindingDB's records for doi:10.1016/s0960-894x(98)00670-2 (Vertex Pharmaceuticals, 1999) come the findings set out here.

The target of this experiment is T1, Gag-Pol polyprotein [489-587] (Human immunodeficiency virus 1, UniProt P04585).
T1 construct: 489-587
Description: ChEBML_157552. As to the method:
Compound was assayed for inhibition against HIV protease activity

With `COc1ccc(S(=O)(=O)N(CC2CCCC2)C[C@@H](O)CN(CCc2ccccc2)C(=O)OCc2cccnc2)cc1` [{(S)-3-[Cyclopentylmethyl-(4-methoxy-benzenesulfonyl)-amino]-2-hydroxy-propyl}-phenethyl-carbamic acid pyridin-3-ylmethyl ester], the Ki is 17 nM.
